The results in this text go back to ChEMBL document CHEMBL3232940, “TNF-α inhibition elicited by mansoins A and B, heterotrimeric flavonoids isolated from Mansoa hirsuta” (J Nat Prod, 2014).

A short description of this assay: Antiinflammatory activity in human THP1 cells assessed as inhibition of LPS-induced TNF-alpha production preincubated for 3 hrs followed by LPS-challenge measured after overnight incubation by sandwich ELISA. Format: functional, cell-based. The conditions noted are these: THP-1.

As to `O=C1C[C@@H](c2ccc(O)c(O)c2)Oc2c1c(O)c([C@@H](CCc1ccc(O)cc1)c1ccc(O)cc1O[C@@H]1O[C@H](CO)[C@@H](O)[C@H](O)[C@H]1O)c(O)c2[C@@H](CCc1ccc(O)cc1)c1ccc(O)cc1O[C@@H]1O[C@H](CO)[C@@H](O)[C@H](O)[C@H]1O`, the IC50 stood at 20 µM.
For `O=C1C[C@@H](c2ccc(O)c(O[C@@H]3O[C@H](CO)[C@@H](O)[C@H](O)[C@H]3O)c2)Oc2c1c(O)c([C@@H](CCc1ccc(O)cc1)c1ccc(O)cc1O[C@@H]1O[C@H](CO)[C@@H](O)[C@H](O)[C@H]1O)c(O)c2[C@@H](CCc1ccc(O)cc1)c1ccc(O)cc1O[C@@H]1O[C@H](CO)[C@@H](O)[C@H](O)[C@H]1O` the value was 48.1 µM.
